Measurements taken from PubChem BioAssay (NCI).
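Five compound concentrations were applied to cells in 96-well plates for 48 hours; endpoints were derived by simple linear interpolation of the resulting dose-response curve. At the GI50, growth is halved. TGI: total growth inhibition.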

Tests used:
Test in all cases: NCI-60 cell line screen, 48 h
LOX IMVI melanoma = system: LOX IMVI melanoma
786-0 renal = system: 786-0 renal
DMS 114 small cell lung = system: DMS 114 small cell lung
SK-MEL-2 melanoma = system: SK-MEL-2 melanoma
KM20L2 colon = system: KM20L2 colon
OVCAR-4 ovarian = system: OVCAR-4 ovarian
NCI-H23 lung = system: NCI-H23 lung
OVCAR-8 ovarian = system: OVCAR-8 ovarian
HOP-92 NSCLC = system: HOP-92 NSCLC
PC-3 prostate = system: PC-3 prostate

SMILES	TGI (LOX IMVI melanoma)	TGI (786-0 renal)	TGI (DMS 114 small cell lung)	TGI (SK-MEL-2 melanoma)	TGI (KM20L2 colon)	TGI (OVCAR-4 ovarian)	TGI (NCI-H23 lung)	TGI (OVCAR-8 ovarian)	TGI (HOP-92 NSCLC)	GI50 (LOX IMVI melanoma)	GI50 (786-0 renal)	GI50 (HOP-92 NSCLC)	GI50 (SK-MEL-2 melanoma)	GI50 (PC-3 prostate)	TGI (PC-3 prostate)	GI50 (OVCAR-4 ovarian)	GI50 (NCI-H23 lung)	GI50 (OVCAR-8 ovarian)
O=[N+]([O-])c1ccc2c(c1)OCCOCCOc1ccc([N+](=O)[O-])cc1OCCOCCO2	> 100 µM	> 100 µM	> 100 µM	> 100 µM	> 100 µM	> 100 µM	> 100 µM	> 100 µM	–	–	–	–	–	–	–	–	–	–
CN1NC2=NCCN=C3NN(C)C(=NCCN=C1S2)S3	> 100 µM	> 100 µM	–	–	> 100 µM	> 100 µM	> 100 µM	> 100 µM	> 100 µM	–	–	–	–	–	–	–	–	–
COc1cccc2c(Nc3ccc(C(=O)NCCNCCO)cc3)cc(-c3ccccc3)nc12	23.2 µM	> 100 µM	–	40.8 µM	–	43.7 µM	> 100 µM	> 100 µM	51.4 µM	3170 nM	33500 nM	16000 nM	19500 nM	35400 nM	> 100 µM	13.5 µM	63.3 µM	42.2 µM
COC(=O)C(=O)C(C(=O)C(=O)Nc1ccc([N+](=O)[O-])cc1[N+](=O)[O-])c1nc2ccc([N+](=O)[O-])cc2[nH]c1=O (stereo not given)	> 100 µM	> 100 µM	> 100 µM	–	> 100 µM	> 100 µM	> 100 µM	> 100 µM	> 100 µM	–	–	–	–	–	–	–	–	–
O=C(O)C1CCCN1Cc1c[nH]c2ccccc12 (stereo not given)	> 100 µM	> 100 µM	–	> 100 µM	–	> 100 µM	> 100 µM	> 100 µM	> 100 µM	–	–	–	–	–	> 100 µM	–	–	–
COc1ccc(/C=C\c2cc(OC)c(OC)c(OC)c2)cc1NC(=O)[C@@H](N)CO	> 100 µM	> 40.3 µM	–	> 100 µM	–	> 100 µM	> 100 µM	> 100 µM	64.5 µM	37.6 nM	18.8 nM	10.3 nM	19.8 nM	18.8 nM	> 100 µM	0.0355 µM	0.033 µM	0.0328 µM
CN(OC(=O)CC(=O)c1ccccc1)C(=O)Cc1ccccc1	> 100 µM	> 100 µM	> 100 µM	> 100 µM	> 100 µM	> 100 µM	> 100 µM	> 100 µM	–	–	–	–	–	–	–	–	–	–
O=C1C(c2ccc(Cl)cc2)=[N+]([O-])c2ccccc21	27.7 µM	30.7 µM	14.3 µM	77.3 µM	52.1 µM	–	31.2 µM	25 µM	–	–	–	–	–	–	–	–	–	–
O=C1CC2(CCCc3sccc32)C(=O)N1 (stereo not given)	> 100 µM	> 100 µM	–	> 100 µM	–	> 100 µM	> 100 µM	> 100 µM	> 100 µM	–	–	–	–	–	> 100 µM	–	–	–
COc1cccc(-c2nc(-c3ccc(NS(=O)(=O)c4ccccc4)cc3)[nH]c2-c2ccnc(Br)c2)c1	3.44 µM	> 100 µM	–	6.62 µM	–	> 100 µM	17.2 µM	> 100 µM	6.54 µM	1560 nM	2980 nM	2460 nM	2500 nM	2390 nM	16.9 µM	3.84 µM	3.06 µM	3.33 µM
O=c1oc2ccccc2cc1-c1ccc([N+](=O)[O-])cc1	> 100 µM	> 100 µM	–	> 100 µM	–	> 100 µM	> 100 µM	> 100 µM	> 100 µM	–	–	–	–	–	> 100 µM	–	–	–
